# From patent US10710988B2, “Piperazine derivative” (Astellas Pharma Inc., priority 2016, dated 2020)
# Where two headings read alike, the source gives them in different places.
# Tests used:
# human MC1 receptor = biological target: T1, human MC1 receptor (Homo sapiens, UniProt Q01726); test: Human MC1 receptor activation, cAMP production in cells transiently expressing the receptor; format: cell-based; settings: FreeStyle 293-F cells expressing human MC1 receptor, α-MSH maximum = 100%
# T1 construct: expressed in transfected cells; host or cells: FreeStyle 293-F cells (transient, electroporation)
# Description: (1) Construction of Human MC Receptor-Expressing Vector
# A human MC4 receptor gene (GenBank Accession No.: NM_005912.2), a human MC1 receptor gene (GenBank Accession No.: NM_002386.3), or a human MC3 receptor gene (GenBank Accession No.: NM_019888.3) was introduced into an expression vector pcDNA™ 3.1N/V5-His TOPO (registered trademark) (Thermo Fisher Scientific Inc).
# (2) Construction of Cells Transiently Expressing Human MC Receptor
# An expression vector for a human MC4, MC1, or MC3 receptor was introduced into FreeStyle™ 293-F cells (Thermo Fisher Scientific Inc., product number: R790-07). For the introduction, electroporation was employed. That is, 1×10^7 FreeStyle™ 293-F cells were suspended in 80 μL of an Electroporation Buffer (Thermo Fisher Scientific Inc., product number: B201-100), and 20 μg of the expression vector was added thereto. The resultant was put into a cuvette (OC-100 Processing Assembly, MaxCyte, Inc.) and electroporated with MaxCyte STX (registered trademark) (MaxCyte, Inc.). The cells were cultured for a day, suspended in a Cell Banker (registered trademark) 1 (TAKARA BIO INC. or JUJI FIELD Inc., product number: BLC-1), and stored frozen until they were used.
# (3) Measurement of Amount of cAMP Production
# Measurement was carried out by using a LANCE (registered trademark) Ultra cAMP Kit (PerkinElmer, Inc.) in accordance with the attached instructions. That is, after dissolution in DMSO, the test compound (a final concentration of 1 pM to 30 μM) diluted with an assay buffer (Hank's balanced salt solution, 5 mM 4-(2-hydroxyethyl)-1-piperazineethanesulfonic acid (HEPES), 0.5 mM 3-isobutyl-1-methylxanthine (IBMX), 0.1% bovine serum albumin, pH 7.4), or α-MSH (Bachem Inc., a final concentration of 1 pM to 30 μM) was added to OptiPlate-384 (PerkinElmer, Inc.). Furthermore, the suspension of the cells transiently expressing the human MC4, MC1, or MC3 receptor prepared using the assay buffer was added thereto at 1,000 cells/well, and then left to stand at room temperature for about 1 hour. Thereafter, an Eu-cAMP tracer solution and an ULight™-anti-cAMP solution were added thereto, and then the resulting solution was left to stand at room temperature for about 1 hour. The amount of cAMP was calculated using EnVision (registered trademark) (PerkinElmer Inc.).
# For the agonistic activity, the efficacy (EC50 (μM)) was calculated by a non-linear regression method with a Sigmoid-Emax model, by defining the maximum reaction using α-MSH as 100% and the reaction using the vehicle alone as 0%, respectively.
# [1] = tested on: phenylephrine-induced urethral pressure increase; test: Effect on rat urethral pressure (phenylephrine-induced urethral pressure increase); format: in vivo; settings: read-out: ID40
# Procedure: The present Test Example was performed by partially modifying the technique reported as a testing system for evaluating a urethral resistance-reducing action (European Journal of Pharmacology, 679, 127-131 (2012)). Male Wistar rats (Charles River Laboratories Japan, Inc.) were anesthetized with urethane (1.2 g/kg ip), and immobilized in a supine position. The midline incision was performed in the lower abdominal portion such that the bladder was exposed. The bladder apex was incised, and from the incision site, a microchip pressure transducer catheter (3.5 Fr, Millar, Inc) was inserted and implanted into the inside of the urethra. In addition, a cannula for drug administration was implanted into the femoral vein. After the urethral pressure was stabilized, phenylephrine hydrochloride (Sigma-Aldrich Co. LLC., 30 μg/kg) was intravenously administered to induce an increase in the urethral pressure. At an interval of about 30 minutes, the above operation was repeated twice or more so as to confirm the stability of the phenylephrine hydrochloride-induced urethral pressure increasing reaction. Then, a test compound (dissolved in 20% dimethyl acetamide, 10% Cremophor (registered trademark), and 70% physiological saline) was intravenously administered, and after 5 minutes, phenylephrine hydrochloride was administered. The procedure of the administration of the test compound and the administration of phenylephrine hydrochloride was repeated at an interval of about 30 minutes, and 3 to 5 doses of the test compound was evaluated (the test compound was administered at increasing doses). The obtained data was introduced into a personal computer through PowerLab (registered trademark) (ADInstruments, Inc.) and analyzed using LabChart (registered trademark) (ADInstruments, Inc.). For the evaluation, the value (AUC value, mmHg-s) of the area under the urethral pressure for one minute before and after administration of phenylephrine hydrochloride was determined to calculate the difference (ΔAUC value) between the AUC value before the administration of phenylephrine hydrochloride and the AUC value after the administration of phenylephrine hydrochloride. The ΔAUC value obtained before administering the test compound was regarded as being 100%, and based on this, the ratio (reaction rate) of the ΔAUC value of the test compound at each dose was calculated. The dose at which the obtained reaction rate became 60% (40% as an inhibition rate) was defined as ID40, and the ID40 values of the test compounds were calculated by non-linear regression.
# [2] = tested on: drug-induced voiding dysfunction model rat; test: Effect on drug-induced voiding dysfunction model rat; format: in vivo; settings: male SD rats; atropine sulfate + midodrine hydrochloride induced voiding dysfunction; inhibition of decrease in voiding efficiency or increase of residual urine; P<0.05
# Description: Male Sprague Dawley (SD) rats (Japan SLC, Inc.) were anesthetized with isoflurane and a cannula was placed in the bladder, the stomach, and the jugular vein. Then, the rats were awakened in a Baellman cage (Natsume Seisakusho Co., Ltd.). After a post-operative stabilization period, physiological saline was continuously infused into the bladder by an infusion pump (Terumo Corporation, product number: TE-331 S, STC-528) to induce voiding. Infusion of the physiological saline was stopped as soon as the voiding began, and the amount of the voided urine was measured using an electronic top-loading balance installed under the Ballman cage. After voiding ended, the residual urine was collected by gravity through the cannula implanted into the bladder and weighed, and the weight was taken as the amount of the residual urine. Furthermore, the intravesical pressure was measured by a pressure transducer (Nihon Kohden Corporation, product numbers: DX-100) through the bladder cannula. The test compound or the vehicle was administered into the stomach, and atropine sulfate (Sigma-Aldrich Co. LLC., 0.01 mg/kg) as an anticholinergic drug and midodrine hydrochloride (Sigma-Aldrich Co. LLC., 0.3 mg/kg) as an a adrenergic receptor agonist were intravenously administered to induce voiding dysfunction. The voiding efficiency (=[voided amount/(voided amount+amount of residual urine)]×100) and the amount of the residual urine before and after the administration of the test compound or the vehicle were measured, and the amount changed was evaluated. The value obtained by the administration of the vehicle and the value obtained by the administration of the test compound were compared in a Dunnett's multiple comparison test with a statistically significant difference (P<0.05), and the minimum dose at which the inhibitory action on a decrease in voiding efficiency or on an increase of the amount of residual urine observed was defined as a minimum effective dose (4 rats per group).
# [3] = male Wistar rats, urethane anesthesia, intravenous, dose giving 40% inhibition of phenylephrine-induced urethral pressure ΔAUC
# T1 sequence (Q01726 whole entry): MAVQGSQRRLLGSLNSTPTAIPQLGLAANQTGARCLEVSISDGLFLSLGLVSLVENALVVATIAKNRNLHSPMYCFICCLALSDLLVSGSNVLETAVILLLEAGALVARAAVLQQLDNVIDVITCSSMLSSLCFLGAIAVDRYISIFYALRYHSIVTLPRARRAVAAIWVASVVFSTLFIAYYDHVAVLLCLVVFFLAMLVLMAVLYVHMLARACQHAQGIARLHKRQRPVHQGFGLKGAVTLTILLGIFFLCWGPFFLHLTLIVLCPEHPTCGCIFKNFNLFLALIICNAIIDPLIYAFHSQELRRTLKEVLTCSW
EC50 (human MC1 receptor) [nM],Compound,"ED40 [1, 3] [mg/kg]",MED (minimum effective dose) [2] [mg/kg ig],ED40 ([1]; iv) [mg/kg]
1700,CC(=O)N[C@@H](CC(C)(C)C)C(=O)N1CCN(C(=O)[C@@H]2CN(C(C)(C)C)C[C@H]2c2ccc(F)cc2F)[C@@H](C)C1.Cl [Example 8],15,0.01,–
1000,"CC(=O)N[C@@H](CC(C)(C)C)C(=O)N1C[C@H](C)N(C(=O)[C@@H]2CN(C(C)(C)C)C[C@H]2c2ccc(F)cc2F)C[C@H]1C.Cl [Example 4, N-{(2S)-1-[(2R,5S)-4-{[(3 S,4R)-1-tert-butyl-4-(2,4-difluorophenyl)pyrrolidin-3-yl]carbonyl}-2,5-dimethylpiperazin-1-yl]-4,4-dimethyl-1-oxopentan-2-yl}acetamide monohydrochloride]",11,0.01,–
2600,"CC(=O)N[C@H](C(=O)N1CCN(C(=O)[C@@H]2CN(C(C)(C)C)C[C@H]2c2ccc(F)cc2F)[C@@H](C)C1)C1CCCCC1.Cl [Example 6, N-{(1S)-2-[(3S)-4-{[(3S,4R)-1-tert-butyl-4-(2,4-difluorophenyl)pyrrolidin-3-yl]carbonyl}-3-methylpiperazin-1-yl]-1-cyclohexyl-2-oxoethyl}acetamide monohydrochloride]",46,0.03,–
1600,CC(=O)N[C@@H](CC(C)(C)C)C(=O)N1C[C@H](C)N(C(=O)C2CN(C(C)(C)C)CC2c2ccc(F)cc2)C[C@H]1C.Cl (stereo partly drawn) [Example 11],28,0.03,–

Compound,EC50 (human MC1 receptor) [nM],"ED40 [1, 3] [mg/kg]",MED (minimum effective dose) [2] [mg/kg ig],ED40 ([1]; iv) [mg/kg]
CC(=O)N[C@@H](CC(C)C)C(=O)N1CCN(C(=O)[C@@H]2CN(C(C)(C)C)C[C@H]2c2ccc(Cl)cc2F)C[C@H]1C [Example 5],710,–,0.01,25
